The values that follow are results of earlier work, collected in patent US20110313191A1, “Preparation of Pharmaceutical Salts of 3-0-(3',3'-Dimethylsuccinyl) Betulinic Acid” (Myrexis, Inc., priority 2005, published 2011).

The subject of this series is HIV. To be noted: comparison with regioisomer 3-O-2′,2′-DSB; literature statement.

SMILES strings stand for the structures.

In the case of `C=C(C)[C@@H]1CC[C@]2(C(=O)O)CC[C@]3(C)[C@H](CC[C@@H]4[C@@]5(C)CC[C@H](OC(=O)CC(C)(C)C(=O)O)C(C)(C)[C@@H]5CC[C@]43C)[C@@H]12` [3-O-3′,3′-DSB, 3-O-(3′,3′-dimethylsuccinyl)betulinic acid], the “EC50 of 3-O-3′,3′-DSB relative to that of 3-O-2′,2′-DSB” value is “about four orders of magnitude lower”.
